Literature values in US20050159377A1, “Methods of modulating activity of prokaryotic ribosomes” (SmithKline Beecham Corporation, priority 2000, published 2005).

Tested on: 50S ribosomal subunit

## O=C(N[C@H](CO)[C@H](O)c1ccc([N+](=O)[O-])cc1)C(Cl)Cl [chloramphenicol]
  competition with pleuromutilin for binding: weakly compete
